Assay results from patent publication US5292733A, “Cephalosporin compounds” (Lucky Limited, priority 1991, dated 1994).
In brackets after ≈: the same amount, converted by molar mass.

Experiments:
Experiment in all cases: Antibacterial activity MIC, two-fold agar dilution
Format in all cases: cell-based
[1] = test system: Micrococcus luteus ATCC 9341; settings: ATCC9341; Micrococcus luteus ATCC 9341; Muller-Hinton agar, 37° C., 20 hours; read-out: Antibacterial Activity MIC
Summary of the method: (§1)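 Using Muller-Hinton agar with test compound dispersed at two-fold serial dilutions, bacteria were applied as 2 μl of a 10^7 CFU/ml standard suspension. MIC was scored after 20-hour incubation at 37° C.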

[2] = test system: Proteus vulgaris ATCC 6059; settings: ATCC6059; Proteus vulgaris ATCC 6059; Muller-Hinton agar, 37° C., 20 hours; read-out: Antibacterial Activity MIC
Summary of the method: as §1

[3] = test system: Acinetobacter calcoaceticus ATCC 15473; settings: ATCC15473; Acinetobacter calcoaceticus ATCC 15473; Muller-Hinton agar, 37° C., 20 hours; read-out: Antibacterial Activity MIC
Summary of the method: as §1

[4] = test system: Shigella flexneri ATCC 11836; settings: ATCC11836, Muller-Hinton agar, 37° C., 20 hours
Summary of the method: as §1

[5] = test system: Staphylococcus aureus ATCC 10537; settings: ATCC10537; Staphylococcus aureus ATCC 10537; Muller-Hinton agar, 37° C., 20 hours; read-out: Antibacterial Activity MIC
Summary of the method: as §1

[6] = test system: Proteus mirabilis ATCC 25933; settings: ATCC25933; Proteus mirabilis ATCC 25933; Muller-Hinton agar, 37° C., 20 hours; read-out: Antibacterial Activity MIC
Summary of the method: as §1

[7] = test system: Klebsiella pneumoniae ATCC 10031; settings: ATCC10031; Klebsiella pneumoniae ATCC 10031; Muller-Hinton agar, 37° C., 20 hours; read-out: Antibacterial Activity MIC
Summary of the method: as §1

[8] = test system: Staphylococcus epidermidis ATCC 12228; settings: ATCC12228; Staphylococcus epidermidis ATCC 12228; Muller-Hinton agar, 37° C., 20 hours; read-out: Antibacterial Activity MIC
Summary of the method: as §1

[9] = test system: Serratia marcescens ATCC 27117; settings: ATCC27117; Serratia marcescens ATCC 27117; Muller-Hinton agar, 37° C., 20 hours; read-out: Antibacterial Activity MIC
Summary of the method: as §1

[10] = test system: Bacillus cereus ATCC 11778; settings: ATCC11778; Bacillus cereus ATCC 11778; Muller-Hinton agar, 37° C., 20 hours; read-out: Antibacterial Activity MIC
Summary of the method: as §1

[11] = test system: Citrobacter freundii ATCC 8090; settings: ATCC8090; Citrobacter freundii ATCC 8090; Muller-Hinton agar, 37° C., 20 hours; read-out: Antibacterial Activity MIC
Summary of the method: as §1

[12] = test system: Morganella morganii ATCC 8076h; settings: ATCC8076H, Muller-Hinton agar, 37° C., 20 hours
Summary of the method: as §1

[13] = test system: Streptococcus faecalis ATCC 29212; settings: Enterococcus faecalis, ATCC29212; Streptococcus faecalis ATCC 29212; Muller-Hinton agar, 37° C., 20 hours; read-out: Antibacterial Activity MIC
Summary of the method: as §1

[14] = test system: Pseudomonas aeruginosa ATCC 25619; settings: ATCC25619; Pseudomonas aeruginosa ATCC 25619; Muller-Hinton agar, 37° C., 20 hours; read-out: Antibacterial Activity MIC
Summary of the method: as §1

[15] = test system: Escherichia coli ATCC 25922; settings: ATCC25922, Muller-Hinton agar, 37° C., 20 hours
Summary of the method: as §1

[16] = test system: Shigella sonnei ATCC 11060; settings: ATCC11060, Muller-Hinton agar, 37° C., 20 hours
Summary of the method: as §1

[17] = test system: Pseudomonas aeruginosa ATCC 10145; settings: ATCC10145; Pseudomonas aeruginosa ATCC 10145; Muller-Hinton agar, 37° C., 20 hours; read-out: Antibacterial Activity MIC
Summary of the method: as §1

[18] = test system: Salmonella typhimurium ATCC 14028; settings: Salmonella enterica; Salmonella typhimurium ATCC 14028; Muller-Hinton agar, 37° C., 20 hours; read-out: Antibacterial Activity MIC
Summary of the method: as §1

[19] = test system: Enterobacter cloacae ATCC 27508; settings: ATCC27508; Enterobacter cloacae ATCC 27508; Muller-Hinton agar, 37° C., 20 hours; read-out: Antibacterial Activity MIC
Summary of the method: as §1

[20] = test system: Bacillus megaterium ATCC 9885; settings: Priestia megaterium, ATCC9885; Bacillus megaterium ATCC 9885; Muller-Hinton agar, 37° C., 20 hours; read-out: Antibacterial Activity MIC
Summary of the method: as §1

[21] = test system: Staphylococcus aureus ATCC 6538p; settings: ATCC6538P; Staphylococcus aureus ATCC 6538p; Muller-Hinton agar, 37° C., 20 hours; read-out: Antibacterial Activity MIC
Summary of the method: as §1

[22] = test system: Escherichia coli ATCC 10536; settings: ATCC10536, Muller-Hinton agar, 37° C., 20 hours
Summary of the method: as §1

[23] = test system: Providencia rettgeri ATCC 9250; settings: ATCC9250, Muller-Hinton agar, 37° C., 20 hours
Summary of the method: as §1

[24] = test system: Pseudomonas aeruginosa ATCC 27853; settings: ATCC27853; Pseudomonas aeruginosa ATCC 27853; Muller-Hinton agar, 37° C., 20 hours; read-out: Antibacterial Activity MIC
Summary of the method: as §1

[25] = test system: Enterobacter aerogenes ATCC 29751; settings: Klebsiella aerogenes, ATCC29751; Enterobacter aerogenes ATCC 29751; Muller-Hinton agar, 37° C., 20 hours; read-out: Antibacterial Activity MIC
Summary of the method: as §1

**Q.** What does the source list for `CCO/N=C(\C(=O)N[C@@H]1C(=O)N2C(C(=O)[O-])=C(CSc3cc(N)[n+](CC)c(N)n3)CS[C@H]12)c1nsc(N)n1` [Compound I-11, (6R,7R)-7-[(Z)-2-(5-amino-1,2,4-thiadiazol-3-yl)-2-(ethoxyimino)acetamido]-3-(2,6-diamino-1-ethylpyrimidinium-4-yl)thiomethyl-3-cephem-4-carboxylate]?
**A.** MIC [1]: 0.016 µg/mL (≈ 0.0276 µM); MIC [2]: 0.5 µg/mL (≈ 0.861 µM); MIC [3]: 4 µg/mL (≈ 6.89 µM); MIC [4]: 0.031 µg/mL (≈ 0.0534 µM); MIC [5]: 0.5 µg/mL (≈ 0.861 µM); MIC [6]: 0.5 µg/mL (≈ 0.861 µM); MIC [7]: ≤ 0.008 µg/mL; MIC [8]: 0.25 µg/mL (≈ 0.431 µM); MIC [9]: 0.13 µg/mL (≈ 0.224 µM); MIC [10]: 128 µg/mL (≈ 220 µM); MIC [11]: 0.063 µg/mL (≈ 0.108 µM); MIC [12]: 0.016 µg/mL (≈ 0.0276 µM); MIC [13]: 8 µg/mL (≈ 13.8 µM); MIC [14]: 0.5 µg/mL (≈ 0.861 µM); MIC [15]: 0.25 µg/mL (≈ 0.431 µM); MIC [16]: 0.25 µg/mL (≈ 0.431 µM); MIC [17]: 2 µg/mL (≈ 3.44 µM); MIC [18]: 0.063 µg/mL (≈ 0.108 µM); MIC [19]: ≤ 0.008 µg/mL; MIC [20]: 0.13 µg/mL (≈ 0.224 µM); MIC [21]: 0.5 µg/mL (≈ 0.861 µM); MIC [22]: 0.13 µg/mL (≈ 0.224 µM); MIC [23]: ≤ 0.008 µg/mL; MIC [24]: 1 µg/mL (≈ 1.72 µM); MIC [25]: 0.13 µg/mL (≈ 0.224 µM)

**Q.** How did the MIC [1] turn out when `CC[n+]1c(N)cc(SCC2=C(C(=O)[O-])N3C(=O)[C@@H](NC(=O)/C(=N\OCC(=O)O)c4csc(N)n4)[C@H]3SC2)nc1N` [Compound I-18, (6R,7R)-7-[(Z)-2-(2-aminothiazol-4-yl)-2-(carboxymethoxyimino)acetamido]-3-(2,6-diamino-1-ethyl-pryrimidinium-4-yl)thiomethyl-3-cephem-4-carboxylate] was run?
**A.** 0.5 µg/mL (≈ 0.82 µM)

**Q.** And the MIC [2]?
**A.** 0.063 µg/mL (≈ 0.103 µM)

**Q.** What about the MIC [3] of the same molecule?
**A.** 16 µg/mL (≈ 26.2 µM)

**Q.** And the MIC [4]?
**A.** 0.016 µg/mL (≈ 0.0262 µM)

**Q.** What about the MIC [5] of the same molecule?
**A.** 4 µg/mL (≈ 6.56 µM)

**Q.** What about the MIC [6] of the same molecule?
**A.** 0.063 µg/mL (≈ 0.103 µM)

**Q.** And the MIC [7]?
**A.** 0.031 µg/mL (≈ 0.0508 µM)

**Q.** And the MIC [8]?
**A.** 2 µg/mL (≈ 3.28 µM)

**Q.** And the MIC [9]?
**A.** 0.063 µg/mL (≈ 0.103 µM)

**Q.** What about the MIC [10] of the same molecule?
**A.** > 128 µg/mL

**Q.** And the MIC [11]?
**A.** 0.063 µg/mL (≈ 0.103 µM)

**Q.** And the MIC [12]?
**A.** ≤ 0.008 µg/mL

**Q.** And the MIC [13]?
**A.** > 128 µg/mL

**Q.** And the MIC [14]?
**A.** 1 µg/mL (≈ 1.64 µM)

**Q.** And the MIC [15]?
**A.** 0.063 µg/mL (≈ 0.103 µM)

**Q.** What about the MIC [16] of the same molecule?
**A.** 0.063 µg/mL (≈ 0.103 µM)

**Q.** And the MIC [17]?
**A.** 4 µg/mL (≈ 6.56 µM)

**Q.** What about the MIC [18] of the same molecule?
**A.** 0.25 µg/mL (≈ 0.41 µM)

**Q.** And the MIC [19]?
**A.** 0.016 µg/mL (≈ 0.0262 µM)

**Q.** And the MIC [20]?
**A.** 0.5 µg/mL (≈ 0.82 µM)

**Q.** And the MIC [21]?
**A.** 4 µg/mL (≈ 6.56 µM)

**Q.** And the MIC [22]?
**A.** 0.063 µg/mL (≈ 0.103 µM)

**Q.** And the MIC [23]?
**A.** ≤ 0.008 µg/mL

**Q.** What about the MIC [24] of the same molecule?
**A.** 2 µg/mL (≈ 3.28 µM)

**Q.** What about the MIC [25] of the same molecule?
**A.** 2 µg/mL (≈ 3.28 µM)
